Data reported in patent US12550899B2, “Topramezone derivative and use thereof” (priority 2023, dated 2026).

Columns and labels:
Assay type in all cases: in vivo
corn = assay: Corn safety laboratory test, visual observation and overall conclusion
Procedure: Three corn varieties: Zhengdan 958, white waxy corn, and sweet corn (Runhua sweet corn).
The soil used for the test was a mixture of surface 20 cm loam and vermiculite, mixed in a volume ratio of 3:1 to form a culture soil. The test corn was cultured in a glass greenhouse with a temperature ranging from 25° C. to 35° C. and under natural light.
A measured quantity of corn seeds were sown in plastic pots with a diameter of 15 cm, and covered with 2-3 cm of soil. The ports were then placed in enamel trays filled with water, and watered by bottom irrigation. After sowing, the pots were transferred to the glass greenhouse for cultivation and growth.
In the corn safety test, dosages were set for the two Compounds (Compound I of the present invention and Compound II of the present invention) and the control herbicide Topramezone, which were 15, 30, 60, and 120 grams of active ingredient per hectare respectively. In addition, a blank control was also prepared.
The required amount of the herbicide was accurately measured out, an appropriate amount of emulsifier and organic solvent were added to dissolve the herbicide, and then a certain amount of water was added therein until the herbicide was diluted to the required dosage by using the serial dilution method for standby.
Corn stems and leaves were uniformly sprayed at the 3-4-leaf stage.
(§1) The ASS-3 automatic control spraying system with a fan-shaped nozzle was used indoors for herbicide application. Depending on the nozzle pressure and flow rate, 50 mL of herbicide solution was applied to a spraying area of 1.1 m^2 (which was equivalent to the water consumption of 30 L per mu). The system's operating speed was calibrated. The plastic pots to be treated were arranged evenly on the spraying platform to ensure uniform treatment. The spray pressure was set to 0.35 MPa, and the flow rate of the fan-shaped nozzle was set to 800 mL/min. The spraying was carried out in sequence from the low dosage to the high dosage. Each treatment was repeated three times.
(§2) The herbicide was applied once. After spraying, the pots were air-dried for one day and then placed in the glass greenhouse. Regular watering was conducted to maintain moisture.
After application of the herbicide, whether there were any phytotoxic symptoms in the corn for each treatment was recorded. If yes, the phytotoxicity symptoms and grade were recorded in detail. 15 days after application, the fresh weight of the corn in each treatment was measured and the fresh weight control efficacy was calculated to assess the safety of the herbicide on the corn.

Eleusine indica = assay: Laboratory bioactivity efficacy test 2.2 (foliar spray); conditions: fresh weight control efficacy 20 days post-application
Procedure: (§3) • grassy weeds: Digitaria sanguinalis, Eleusine indica, Echinochloa crusgalli; • Broadleaf weeds: Portulaca oleracea, Abutilon theophrasti medicus. 2.2.2 Test Conditions
(§4) The soil used for the test was a mixture of surface 20 cm loam and vermiculite, mixed in a volume ratio of 3:1 to form a culture soil. The test weeds were cultured in a glass greenhouse with a temperature ranging from 25° C. to 35° C. and under natural light.
(§5) Quantified seeds of Digitaria sanguinalis, Eleusine indica, Echinochloa crusgalli, Portulaca oleracea, and Abutilon theophrasti medicus were sown in plastic pots with a diameter of 9 cm, and covered with 1-2 mm of soil. The ports were then placed in enamel trays filled with water, and watered by bottom irrigation. After the water seeped to the soil surface, the pots were transferred to the glass greenhouse for standby.
(§6) Five dosages were set for Compound I, Compound II and the control herbicide Topramezone, which were 3.75, 7.5, 15, 30 and 60 grams of active ingredient per hectare respectively. In addition, a blank control was also prepared.
(§7) The required amount of the herbicide was accurately measured out and directly added with water, which was diluted to the required dosage by using the serial dilution method for standby.
as §1, with “test was conducted on grassy weeds at the two-leaf and one-heart stage, Abutilon theophrasti medicus at the 2-true-leaf stage, and Portulaca oleracea at the 3-5-leaf stage, with the stems and leaves both sprayed uniformly. The ASS-4” for “ASS-3”, “two to four” for “three”
as §2
(§8) The damage symptoms of the weeds (such as growth inhibition, chlorosis, malformation, etc.) were carefully recorded at 3, 7, 10, and 20 days after herbicide application. A visual comparison of the herbicide effectiveness was made. At 20 days post-application, the fresh weight of the aboveground parts of the weeds from each treatment group was measured, and the fresh weight control efficacy was calculated.
(§9) The treatment results were calculated according to the following formula: weed fresh weight control efficacy (%)=(control fresh weight−treatment fresh weight)/control fresh weight×100.
(§10) A DPS statistical software was used to conduct regression analysis on the logarithmic values of the herbicide dosage and the probit values of the weed fresh weight control efficacy, and the correlation coefficient, GR50, GR90, and the 95% confidence interval were calculated.

Echinochloa crusgalli = assay: as above; conditions: fresh weight control efficacy 20 days post-application
Procedure: as §3, §4, §5, §6, §7
as §1, with “test was conducted on grassy weeds at the two-leaf and one-heart stage, Abutilon theophrasti medicus at the 2-true-leaf stage, and Portulaca oleracea at the 3-5-leaf stage, with the stems and leaves both sprayed uniformly. The ASS-4” for “ASS-3”, “two to four” for “three”
as §2, §8, §9, §10

SMILES	Visual observation of corn (corn; in vivo)	GR50 (Eleusine indica) [g a.i./ha]	GR90 (Eleusine indica) [g a.i./ha]	GR50 (Echinochloa crusgalli) [g a.i./ha]	GR90 (Echinochloa crusgalli) [g a.i./ha]	Visual observation of corn (corn; 3 to 7 days after application)	Visual observation of corn (corn; 10 days after application)	Visual observation of corn (corn; 15 days after application)	Overall safety for corn (corn; Zhengdan 958, waxy corn and sweet corn)
COC(=O)OC(C)Oc1c(C(=O)c2ccc(S(C)(=O)=O)c(C3=NOCC3)c2C)cnn1C (centres unmarked) [Compound I, 1-((4-(3-(4,5-dihydroisoxazol-3-yl)-2-methyl-4-(methylsulfonyl)benzoyl)-1-methyl-1H-pyrazol-5-yl)oxy)ethyl methyl carbonate]	all normal	2.71	14.85	6.03	11.04	–	–	–	–
Cc1c(C(=O)c2cnn(C)c2OC(=O)C(C)(C)C)ccc(S(C)(=O)=O)c1C1=NOCC1 [Compound II, 4-(3-(4,5-dihydroisoxazol-3-yl)-2-methyl-4-(methylsulfonyl)benzoyl)-1-methyl-1H-pyrazol-5-yl pivalate]	–	3.79	19.79	6.13	12.64	–	–	–	–
Cc1c(C(=O)c2cnn(C)c2O)ccc(S(C)(=O)=O)c1C1=NOCC1 [Topramezone]	–	2.75	16.07	6.52	12.92	safe for corn	safe for corn	basically growing normally	high safety levels
